Article PMC4619319, “A potent anti-inflammatory peptide from the salivary glands of horsefly” (Parasites & Vectors, 2015)

Tests used:
iNOS transcription = assay: LPS-stimulated iNOS mRNA transcription in peritoneal macrophages (qPCR); assay type: cell-based, mouse; conditions: 100 ng/mL LPS, 6 h
Protocol: qPCR was performed using SYBR green master mix (Takara, Japan) on a Realplex Mastercycler real-time PCR system (Eppendorf, Germany) according to the manufacturer’s instruction. The gene transcription levels were normalized to GAPDH or β-actinas as illustrated in figure legends and calculated by ΔΔCt method. The accuracy of qPCR results were checked by melting curve analysis. qPCR primers were listed in Additional file 1: Table S1.
Cells were incubated with peptides (0, 5, 10, and 20 μg/mL) in the presence or absence of LPS (100 ng/mL, from Escherichia coli 0111:B4, Sigma-Aldrich, USA). After 6-h incubation, cells in one plate were washed twice with ice-cold PBS and lysed by Trizol reagent (Life Tech, USA) for total RNA extraction. PrimeScript® Reverse Transcriptase Kit (Takara, Japan) was used to synthesize cDNA for qPCR to examine the transcription levels of inducible nitric oxide synthase (iNOS), which is necessary for NO production. After 24-h incubation, culture medium of each wells of another plate was harvested for nitrite detection, which indirectly reflected the NO production. Nitrite accumulation levels were determined by NO detection kit (Beyotime, China) following the kit instruction.

P-IκBα = assay: Western blot, LPS-induced P-IκBα in peritoneal macrophages; assay type: cell-based, mouse; conditions: 20 μg/mL peptide, 100 ng/mL LPS, 30 min, band density ratio to β-actin
Protocol: (§1) Cells were treated with different concentrations of cecropin-TY1 (0, 5, 10, and 20 μg/mL) in the presence or absence of 100 ng/mL LPS (from E. coli 0111:B4, Sigma-Aldrich, USA). After 30-min incubation, cells were washed twice with ice-cold PBS and lysed with RIPA lysis buffer (Beyotime, China) on ice for 30 min according to our previous method. Protein concentration was quantified by BCA Protein Assay Kit (Thermo, Germany). About 40 μg protein was separated on a 10 % SDS-PAGE gel and transferred to a polyvinylidene difluoride membrane. The membrane was blocked by incubating with 5 % BSA (BD, USA) dissolved in Tris-buffered solution Tween-20 (TBST, 2.42 g/L Trisbase, 8 g/L NaCl, 0.1 % Tween 20, pH 7.6) for 2 h at room temperature. The membrane was then incubated with primary antibodies against ERK, phospho-ERK, p38, phospho-p38, JNK, phospho-JNK, phospho-IκBα, NF-κB p65 and phospho-NF-κB p65 (1:2000, Cell Signaling Technology, USA) and GAPDH/β-actin (1:5000, Santa Cruz Biotechnology, USA) overnight at 4 °C, respectively. After incubation, the immunoblot was washed three times with TBST for 5 min each time, and incubated with secondary antibody (1:5000, Cell Signaling Technology, USA) at room temperature for 1 h. Signals were measured by enhanced chemiluminescence kit in a dark room after washing three times with TBST for 10 min each time (TIANGEN, China).

P-p65 = assay: Western blot, LPS-induced P-p65 in peritoneal macrophages; assay type: cell-based, mouse; conditions: 20 μg/mL peptide, 100 ng/mL LPS, 30 min, band density ratio to β-actin
Protocol: as §1

[1] = LPS neutralization, chromogenic end-point TAL assay; assay type: biochemical; conditions: LPS 1 μg/mL, 37 °C, 30 min
Protocol: Fluorescein isothiocyanate (FITC)-conjugated LPS (1 μg/mL, Sigma-Aldrich, USA) was excited at 480 nm and monitored the changes in the emission of FITC-LPS at 515 nm in the incubation of different concentrations of peptides (0, 12.5, 25, 50, 100 μg/mL). Peptides were dissolved in 10 mM phosphate buffer at pH 6.0. The interactions between peptides and LPS were further assessed by a quantitative Chromogenic End-point Tachypleus amebocyte lysate (TAL) assay kit (Xiamen Houshiji, China) following the kit instruction. Briefly, different concentrations of peptides (0, 12.5, 25, 50, 100 μg/mL) were incubated with LPS (1 μg/mL, Sigma-Aldrich, USA) at 37 °C for 30 min. After incubation, 100 μL TAL solution was added to 100 μL LPS-peptide mixtures in a pyrogen-free tube and incubated at 37 °C for 10 min. Then, LPS-peptide mixtures were added with pre-warmed substrate solution for additional 6-min incubation at 37 °C. Lastly, the absorbance at 545 nm was measured on a microplate reader (Epoch Etock, BioTek, USA). The percentages of LPS-neutralizing activity were calculated.

[2] = Circular dichroism, secondary structural components; assay type: physicochemical; conditions: CD, 25 °C, average of three scans
Protocol: CD spectra were collected on a Jasco-810 spectropolarimeter (Jasco, Tokyo, Japan) with a 1-mm path-length cell at 25 °C and 0.2-nm intervals from 190 to 260 nm. Cecropin-TY1 was dissolved in H2O, TFE/water solution, SDS/water solution and LPS/water solution at the concentration of 0.2 mg/mL. The data from three scans were averaged and smoothed using the Jasco-810 software for each spectrum. CD data were expressed as the mean residue ellipticity (θ) in deg.cm^2.dmol^−1.

[3] = LPS 50 ng/mL in water, peptide 0.2 mg/mL
[4] = LPS 100 ng/mL in water, peptide 0.2 mg/mL
[5] = LPS 200 ng/mL in water, peptide 0.2 mg/mL
[6] = LPS 400 ng/mL in water, peptide 0.2 mg/mL
[7] = SDS 5 mM in water, peptide 0.2 mg/mL
[8] = SDS 10 mM in water, peptide 0.2 mg/mL
[9] = SDS 20 mM in water, peptide 0.2 mg/mL
[10] = SDS 40 mM in water, peptide 0.2 mg/mL

Substance: GWLKKIGKKIERVGQNVRNAAISTLPIAQGAAGVAGALN-NH2 [cecropin-TY1, cecropin antimicrobial peptide from salivary glands of horsefly Tabanus yao, 39 residues, C-terminally amidated, synthesized]
- attenuation of LPS-activated iNOS transcription (iNOS transcription; 5 μg/mL peptide): 58.8%
- attenuation of LPS-activated iNOS transcription (iNOS transcription; 10 μg/mL peptide): 68.7%
- attenuation of LPS-activated iNOS transcription (iNOS transcription; 20 μg/mL peptide): 84.2%
- inhibition of LPS-induced P-IκBα expression (P-IκBα): 74.8%
- inhibition of LPS-induced P-p65 expression (P-p65): 55.9%
- LPS neutralized ([1]; 12.5 μg/mL peptide): 28.8%
- LPS neutralized ([1]; 25 μg/mL peptide): 41.3%
- LPS neutralized ([1]; 50 μg/mL peptide): 47.9%
- LPS neutralized ([1]; 100 μg/mL peptide): 65.1%
- Beta (%) ([2]; H2O, peptide 0.2 mg/mL): 0.0%
- Helix (%) ([2]; H2O, peptide 0.2 mg/mL): 0.0%
- Random (%) ([2]; H2O, peptide 0.2 mg/mL): 71.1%
- Turn (%) ([2]; H2O, peptide 0.2 mg/mL): 28.9%
- Beta (%) [2, 3]: 32.4%
- Helix (%) [2, 3]: 0.0%
- Random (%) [2, 3]: 55.2%
- Turn (%) [2, 3]: 12.4%
- Beta (%) [2, 4]: 46.6%
- Helix (%) [2, 4]: 2.9%
- Random (%) [2, 4]: 47.4%
- Turn (%) [2, 4]: 3.1%
- Beta (%) [2, 5]: 44.5%
- Helix (%) [2, 5]: 12.7%
- Random (%) [2, 5]: 41.1%
- Turn (%) [2, 5]: 1.7%
- Beta (%) [2, 6]: 47.8%
- Helix (%) [2, 6]: 14.8%
- Random (%) [2, 6]: 37.2%
- Turn (%) [2, 6]: 0.1%
- Beta (%) [2, 7]: 17.5%
- Helix (%) [2, 7]: 45.3%
- Random (%) [2, 7]: 37.2%
- Turn (%) [2, 7]: 0.0%
- Beta (%) [2, 8]: 22.7%
- Helix (%) [2, 8]: 41.2%
- Random (%) [2, 8]: 36.1%
- Turn (%) [2, 8]: 0.0%
- Beta (%) [2, 9]: 13.4%
- Helix (%) [2, 9]: 46.6%
- Random (%) [2, 9]: 40.0%
- Turn (%) [2, 9]: 0.0%
- Beta (%) [2, 10]: 7.4%
- Helix (%) [2, 10]: 54.4%
- Random (%) [2, 10]: 38.2%
- Turn (%) [2, 10]: 0.0%
- Beta (%) ([2]; TFE/H2O 3:7, peptide 0.2 mg/mL): 28.7%
- Helix (%) ([2]; TFE/H2O 3:7, peptide 0.2 mg/mL): 28.4%
- Random (%) ([2]; TFE/H2O 3:7, peptide 0.2 mg/mL): 42.8%
- Turn (%) ([2]; TFE/H2O 3:7, peptide 0.2 mg/mL): 0.0%
- Beta (%) ([2]; TFE/H2O 5:5, peptide 0.2 mg/mL): 22.4%
- Helix (%) ([2]; TFE/H2O 5:5, peptide 0.2 mg/mL): 36.9%
- Random (%) ([2]; TFE/H2O 5:5, peptide 0.2 mg/mL): 40.7%
- Turn (%) ([2]; TFE/H2O 5:5, peptide 0.2 mg/mL): 0.0%
- Beta (%) ([2]; TFE/H2O 7:3, peptide 0.2 mg/mL): 22.4%
- Helix (%) ([2]; TFE/H2O 7:3, peptide 0.2 mg/mL): 37.8%
- Random (%) ([2]; TFE/H2O 7:3, peptide 0.2 mg/mL): 39.9%
- Turn (%) ([2]; TFE/H2O 7:3, peptide 0.2 mg/mL): 0.0%
- Beta (%) ([2]; TFE/H2O 9:1, peptide 0.2 mg/mL): 15.0%
- Helix (%) ([2]; TFE/H2O 9:1, peptide 0.2 mg/mL): 45.1%
- Random (%) ([2]; TFE/H2O 9:1, peptide 0.2 mg/mL): 39.9%
- Turn (%) ([2]; TFE/H2O 9:1, peptide 0.2 mg/mL): 0.0%
